In patent US20250082656A1, “DOSAGE REGIMENS FOR TREATMENT OF DENGUE INFECTION” (Atea Pharmaceuticals, Inc., priority 2022, published 2025):
Where two headings read alike, the source gives them in different places.

Experiments:
Usutu = assay: microbe, parasite or virus in culture; assay type: cell-based; conditions: TC-508, Huh-7, VYR assay
[1] = Pharmacokinetic study in SAD cohorts; assay type: in vivo, human; conditions: for CL renal / AUC(0-inf) / half-life / Cmax / Tmax: both sexes, human, po; for CL renal: plasma and urine; for AUC(0-inf) / half-life / Cmax / Tmax: plasma, human plasma; for Cmax: read-out: Cmax; for Tmax: read-out: Tmax
Human PBMC = conditions: Table 1A, human PBMC without virus; highest concentration tested
[2] = steady-state, human plasma, Compound 2 750 mg TID; median (minimum-maximum)
clinical = conditions: both, human, in vivo, steady-state, human plasma, mean±SD; for AUC: AUCtau
DENV-1 = assay: microbe, parasite or virus in culture; conditions: Dengue virus, DENV1, Huh-7
[3] = 250 mg, single oral Compound 2 250 mg, fasting
[4] = 500 mg, single oral Compound 2 500 mg, fasting
[5] = 500 mg, single oral Compound 2 500 mg, fed
[6] = 1000 mg, single oral Compound 2 1000 mg, South/Southeast/East Asian origin
[7] = 1000 mg, single oral Compound 2 1000 mg, fasting
[8] = 1500 mg, single oral Compound 2 1500 mg, fasting

## CNc1nc(N)nc2c1ncn2[C@@H]1O[C@H](CO[P@](=O)(N[C@@H](C)C(=O)OC(C)C)Oc2ccccc2)[C@@H](O)[C@@]1(C)F [Compound 1, isopropyl ((R)-(((2R,3R,4R,5R)-5-(2-amino-6-(methylamino)-9H-purin-9-yl)-4-fluoro-3-hydroxy-4-methyltetrahydrofuran-2-yl)methoxy)(phenoxy)phosphoryl)-L-alaninate]
Usutu
  EC90: 0.72 µM
[1]; [3]
  CL renal: 125 mL/min
  AUC(0-inf): 347 ± 64 ng·h/mL
  half-life: 30 ± 6 min
  Cmax: 482 ± 131 ng/mL
  Tmax: 30 min
[1]; [4]
  CL renal: 182 mL/min
  AUC(0-inf): 1110 ± 687 ng·h/mL
  half-life: 30 ± 60 min
  Cmax: 1230 ± 1110 ng/mL
  Tmax: 30 min
[1]; [5]
  CL renal: 110 mL/min
  AUC(0-inf): 980 ± 716 ng·h/mL
  half-life: 42 ± 18 min
  Tmax: 120 min
[1]; [6]
  CL renal: 162 mL/min
  AUC(0-inf): 2730 ± 944 ng·h/mL
  half-life: 30 ± 6 min
  Tmax: 30 min
[1]; [7]
  CL renal: 190 mL/min
  AUC(0-inf): 1920 ± 508 ng·h/mL
  half-life: 30 ± 6 min
  Cmax: 3040 ± 960 ng/mL
  Tmax: 30 min
[1]; [8]
  CL renal: 138 mL/min
  AUC(0-inf): 4630 ± 1500 ng·h/mL
  half-life: 36 ± 12 min
  Cmax: 5050 ± 2080 ng/mL
  Tmax: 30 min
[1]; 500 mg, single oral Compound 2 500 mg, fed (high-fat/high-calorie meal)
  Cmax: 488 ± 303 ng/mL
[1]; 1000 mg, single oral Compound 2 1000 mg, patients of South/Southeast/East Asian origin
  Cmax: 3670 ± 1260 ng/mL
[1]; dose range 250 to 1500 mg
  dose proportionality of plasma exposure: greater than dose-proportional manner
[1]; following single oral administration of Compound 2 at 250 to 1500 mg
  Urine Elimination: < 3%
Human PBMC
  CC50: > 85 µM
[2]
  Tmax: 0.5 (0.5-1.0) h
clinical; 750 mg, Compound 2 750 mg BID
  AUC: 2610 ± 640 ng·h/mL
  Cmax: 3490 ± 1280 ng/mL
clinical; 750 mg, Compound 2 750 mg TID
  AUC: 2540 ± 572 ng·h/mL
  Cmax: 3010 ± 754 ng/mL
clinical; 1000 mg, Compound 2 1000 mg QD
  AUC: 3090 ± 1530 ng·h/mL
  Cmax: 3810 ± 1670 ng/mL
DENV-1
  EC50: 0.57 µM
